How the values were obtained:
[1] = Cell viability assay (alamarBlue); format: cell-based, human; conditions: human, RD cells
Experimental: (§1) Firstly, we performed cell viability assay to evaluate the cytotoxicity profile of the 19 hits. Cells seeded overnight were treated with the hit compounds at 10 µM. […] Anti-EV-A71 activity of AGP-253 had been illustrated and discussed previously. We were particularly interested in ZAF-46 and ZAF-47 as they belonged to the same series bearing novel 14-quinolinoxy and 17-hydro-8,9-olefin modifications (Figure 2b) that could potentially open up new targets for EV-A71 therapeutics. Additional cell viability assays were performed for ZAF-46 and ZAF-47 at different concentrations to identify the low cytotoxic concentrations for downstream post-treatment assays. For post-treatment assays, cells seeded overnight were infected with EV-A71 and subsequently treated with ZAF-46 and ZAF-47 at different concentrations. […] Treatment with ZAF-46 led to 1.4 log reduction at 10 µM and 2.4 log reduction at 20 µM (Figure 2c) while treatment with ZAF-47 led to 0.8 log reduction at 5 µM, 1.1 log reduction at 10 µM and 2.1 log reduction at 20 µM (Figure 2d). CC50 and IC50 for both compounds were determined and used to derive their SI (Table 2). ZAF-47 was selected for further downstream analysis due to its higher SI value which indicate higher pharmacological value for clinical use.
(§2) To determine the cytotoxicity profiles of the hits, cell viability assay was performed. Seeded 96-well plates, with 2 × 10^4 RD cells per well, were incubated overnight at 37 °C with 5% CO2. Different concentrations of drug hits, diluted by reduced serum DMEM, were used to treat the seeded cells for 12 h at 37 °C with 5% CO2. Reduced serum DMEM, was employed as the negative control and 0.1% DMSO as the vehicle control for this step. Subsequently, the supernatant was replaced with alamarBlue^TM Cell Viability Reagent (Thermo Fisher Scientific, Waltham, MA, USA) (100 µL), diluted 10-fold in reduced serum DMEM, and incubated for 3 h at 37 °C with 5% CO2. Fluorescence intensity in each well was measured at 570 nm excitation wavelength and 600 nm emission wavelength in each well by the Infinite^TM 200 series microplate reader (Tecan, Männedorf, Switzerland) and normaliszd with the negative control to determine the relative cell viability.

RD cells = assay: Cell viability assay (alamarBlue); format: cell-based, human; conditions: 10 µM, 12 h
Experimental: as §1, §2

EV-A71 = assay: Post-treatment assay with viral plaque assay; format: cell-based, human enterovirus A71 (EV-A71) strain 41; conditions: for reduction in viral titre: post-treatment, 12 hpi
Experimental: as §1
To determine the inhibitory profiles of the hits, post treatment assay was performed. Seeded 24-well plates, with 1.5 × 10^5 RD cells per well, were incubated overnight at 37 °C with 5% CO2. The seeded cells were infected with EV-A71 (100 µL per well, MOI = 1) for 1 h at 37 °C with 5% CO2 and then rinsed with 1 mL of PBS twice. Different concentrations of the hits were used to treat the infected cells for 12 h at 37 °C with 5% CO2. At 12 hpi, the plates were frozen and thawed for 2 cycles (−80°C; 37 °C) before collection of supernatants to measure the viral titres via viral plaque assay.
Measurement of the viral titres from collected supernatants was derived from viral plaque assays. To do this, 24-well plates, seeded with 2.4 × 10^5 RD cells per well, were used in plaque assays for EV-A71, EV-D68, Echo7, CV-A6, CV-A16 and CV-A24 while 24-well plates, seeded with 1.2 × 10^5 Vero cells per well, were used in plaque assays for CV-B5. Seeded cells were incubated overnight at 37 °C with 5% CO2. Viral supernatants were diluted from 10^−1 to 10^−7 in reduced serum DMEM before infecting the cells with a volume of 100 µL for 1 h at 37 °C with 5% CO2 (33 °C instead for EV-D68). Cells were rinsed twice with PBS before overlaying with 1 mL of reduced serum DMEM containing 0.5% agarose (Vivantis, Shah Alam, Malaysia). Cells infected with Echo7 supernatants were incubated for 2 days, cells infected with CV-A24 and CV-B5 supernatants were incubated for 3 days and cells infected with EV-A71, CV-A6, CV-A16 and EV-D68 supernatants were incubated for 4 days for the formation of plaques. Subsequently, the cells were fixed and stained overnight with 4% paraformaldehyde and 1% crystal violet (Sigma-Aldrich). Subsequent formation of viral plaques was counted manually to quantify the viral titre in PFU/mL

EV-A71 IRES = assay: Bicistronic luciferase reporter assay; format: cell-based, human enterovirus A71 (EV-A71) strain 41; conditions: RD cells, various concentrations, 12 h
Experimental: To validate this finding, we also transfected RD cells with a bicistronic reporter construct which had been established and validated previously. Similarly, the transfected cells were treated with ZAF-47 at various concentrations and then incubated for 12 h before luminescence detection. The construct comprises a human cytomegalovirus (CMV) promoter with a downstream Renilla luciferase (R Luc) gene and an EV-A71 strain 41 IRES with a downstream firefly luciferase (F Luc) gene (Figure 4f). This means that R Luc can be expressed by the CMV promoter via cap-dependent translation while F Luc can be expressed by the EV-A71 IRES via cap-independent translation. An accurate determination of IRES activity would be to use the ratio of F Luc luminescence reading to R Luc luminescence reading (F Luc/R Luc). The transfected cells were also treated with negative control, DMSO and positive control, apigenin, an EV-A71 IRES inhibitor [53].
Seeded 96-well white plates (Corning), with 2 × 10^4 RD cells per well, were incubated overnight at 37 °C with 5% CO2. After which, a bicstronic luciferase reporter construct was used to transfect the cells, as described in our previous work, for 12 h at 37 °C with 5% CO2. […]

CC(=O)OC[C@]1(C)C(=O)CC[C@@]2(C)C(C/C=C3/C(=O)OC[C@@H]3Oc3cccc4cccnc34)=C(C)CC[C@@H]21 [ZAF-47, (14β)-(8′-Quinolinoxy)-3-ketone-9-dehydro-17-hydro-19-acetoxy–andrographolide]
CC50 at 12 h [1]: 29.6 µM
cytotoxicity (RD cells): low cytotoxicity
reduction in viral titre (EV-A71; 5 µM): 0.8 log
reduction in viral titre (EV-A71; 10 µM): 1.1 log
reduction in viral titre (EV-A71; 20 µM): 2.1 log
IC50 (EV-A71; Enterovirus A, EVA71, EV-A71-infected RD cells, MOI = 1, 12 h treatment, viral plaque assay): 2.06 µM
Selectivity Index (SI) (EV-A71; SI = CC50/IC50): 14.35
IRES activity (F Luc/R Luc) (EV-A71 IRES): did not reduce IRES activity

From publication PMC8880313, “Discovery of Novel Andrographolide Derivatives as Antiviral Inhibitors against Human Enterovirus A71” (Pharmaceuticals, 2022)
